Reference: paper PMC11077991, “The small molecule CBR-5884 inhibits the Candida albicans phosphatidylserine synthase” (mBio, 2024)
Where “and” joins values, the source holds several entries; their conditions need not be identical. Equal values may be shown once. Read-outs that look alike come from different tables or passages of the source.

Legend:
[1] = system: crude membrane containing Cho1; experiment: radioactive PS synthase assay on crude membrane containing Cho1; format: biochemical, Candida albicans; settings: compounds at 1 mM
Method: Enzymatic activity of Cho1 in the presence of the compounds was measured using the radioactive PS synthase assay. For purified Cho1, the procedure was fully described in reference ([33]). Briefly, 1–2 μg of purified Cho1 was added to the reaction containing 50 mM Tris-HCl (pH 8.0), 1 mM MnCl2, 0.1% Triton X-100, 0.04% digitonin, 0.1 mM (4.7 mol %), 16:0 CDP-DAG (Avanti, cat# 870510), and 0.5 mM L-serine [spiked with 5% (by volume) L-[^3H]-serine (15 Ci/mmol)] at a total volume of 100 µL, in the presence of 100 µM of each compound or equivalent DMSO solvent. The reaction was conducted at 30°C for 30 min, and [^3H]PS produced in the reaction was measured using a liquid scintillation counter. For crude membrane samples, crude membrane preps from wildtype and cho1ΔΔ strains were collected and assayed as described in reference ([33]) with the exception that 2 mM L-serine [spiked with 5% (by volume) L-[^3H]-serine (15 Ci/mmol)] was used in each reaction. A final concentration of 1 mM of each compound was used for the crude membrane samples.

[2] = molecular target: purified C. albicans Cho1 (phosphatidylserine synthase) (Candida albicans, UniProt A0A1D8PF32); experiment: malachite-green-based nucleotidase-coupled assay, dose-response; format: biochemical; settings: top 200 µM, 3 h at 30°C, three replicates
Sequence of purified C. albicans Cho1 (phosphatidylserine synthase) (A0A1D8PF32 entry or part of it): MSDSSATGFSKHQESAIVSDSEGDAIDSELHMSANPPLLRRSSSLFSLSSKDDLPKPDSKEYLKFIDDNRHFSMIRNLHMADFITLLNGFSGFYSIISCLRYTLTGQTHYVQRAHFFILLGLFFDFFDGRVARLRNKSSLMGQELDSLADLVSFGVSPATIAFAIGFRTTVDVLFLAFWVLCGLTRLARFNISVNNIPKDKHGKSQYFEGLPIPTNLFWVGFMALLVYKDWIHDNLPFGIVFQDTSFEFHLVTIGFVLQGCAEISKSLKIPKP
Method: A malachite-green-based nucleotidase-coupled assay was used to measure the PS synthesis activity of Cho1 (Fig. 1B). Cho1 catalyzes the production of PS and cytidylmonophosphate (CMP) from CDP-DAG and serine, where CMP can then be recognized and cleaved by the nucleotidase CD73 to release inorganic phosphate, which is subsequently detected by malachite green. To test whether this malachite-green-based assay can reflect Cho1 activity, a time-course test was performed with a fixed amount of purified Cho1 in the presence of substrates (Fig. 1C).
The bioactives library was purchased from Selleck in 2014, and the remaining libraries (anti-infectives and mechanism of action libraries) were assembled from compounds available at the Chemical Biology and Therapeutics Department at St. Jude Children’s Research Hospital. The anti-infectives library contains a curated list of antimicrobials and antiviral agents ([95]). The bioactive library has a compilation of compounds acquired from commercial sources and external academic collaborators. The mechanism of action set is a dynamic set of well-annotated compounds with comprehensive coverage of human targets and mechanisms of action ([96]). All compounds were dissolved in DMSO and 100 nL was transferred to a 384-well clear bottom plate (ThermoFisher Scientific, cat# 265203) using a Beckman Echo 650 acoustic liquid handler. Equal volumes of either the selective CD73 nucleotidase inhibitor AB680 at a final concentration of 1 µM (MedChemExpress, cat# HY-125286) or DMSO were used as positive and negative controls, respectively. A total of 30–35 ng of purified Cho1 protein was used in each reaction in 50 mM Tris-HCl (pH 8.0) for primary screening, combined with 100 µM CDP-DAG (Avanti, cat# 870510), 5 mM serine, 0.4 ng CD73 nucleotidase (R&D systems, cat# EA002), 1 mM MnCl2, 0.1% APX-100, and 0.1% digitonin, in a total volume of 10 µL. Counter screen reactions were set up by replacing only the purified Cho1 with 150 µM CMP, with all other components remaining constant. The 10 µL primary and counter screening reactions were delivered to each well of 384-well assay plates containing pre-aliquoted compounds from the library using a Multidrop Combi (ThermoFisher Scientific). […] After media transfer, assay plates were incubated for 3 h at 30°C. Plates were then removed and 32 µL of malachite green mixture [6 µL malachite A (2%, wt/vol, ammonium molybdate and 20%, vol/vol, sulfuric acid in H2O) +20 µL H2O + 6 µL malachite B (0.1%, wt/vol, malachite green oxalate and 0.5%, wt/vol, polyvinyl alcohol in H2O)] were added to each well via a MultiDrop Combi and incubated for an additional 10 min at room temperature. After incubation, plates were briefly centrifuged at 500 × g and absorbance at 620 nm was then measured using a Cytation7 plate reader (Biotek, Winooski, VT). Raw absorbance values of the compounds were normalized to DMSO (0% inhibition) and AB680 (100% inhibition) from both primary and counter screens, and % Δinhibition was calculated by […]. Z-factors for each plate were calculated using the in-house program RISE (Robust Investigation of Screening Experiments). All non-PAINs compounds that had >80% Δinhibition progressed to dose-response testing (82 total compounds). Dose-response experiments were performed in triplicate as described above using a 10-point, threefold serial dilution with the top concentration for each compound tested being 200 µM (range: 0.010161–200 μM). The absorbance at 620 nm was then measured using a PHERAstar FS multilabel reader (BMG, Cary, NC). Raw values were once again normalized to DMSO (0% inhibition) and AB680 (100% inhibition) and Z-factors for each plate were calculated using RISE. […]

[3] = Best-fit IC50, inhibition of Cho1, 10-point dose-response

Structure (SMILES) | PS production in native crude membranes [1] | IC50 [2, 3] | IC50 ([2]; 10-point dose-response, read-out: Best-fit IC50, inhibition of Cho1)
CCOC(=O)c1sc(NC(=O)c2ccco2)c(SC#N)c1C [CBR-5884] | decreased PS production | ≤ 20 µM and ~8.44 µM | 
O=c1c2ccccc2[se]n1-c1ccccc1 [Ebselen] | decreased PS production | ≤ 20 µM and ~11.1 µM and 11.1 µM | 
O=C(C1CC1)N1CCN(Cn2sc3ccccc3c2=O)CC1 [LOC14] | decreased PS production |  | ~75.5 µM
